In brackets after ≈: the same amount, converted by molar mass. Several values for one entry are separate records, joined by “and”; a condition that tells them apart may be missing. Equal values may be shown once. Entries after “also recorded” stand apart in the source; their conditions may differ. Read-outs that look alike come from different tables or passages of the source.
Experiments:
mutant BTK (C481S) [1] = conditions: cited from earlier work
TMD8 cells [2] = assay: Cell washout cytotoxicity assay; conditions: TMD‐8 cells
SCW induced arthritis = assay: Streptococcal cell wall; format: in vivo, Sprague Dawley rats
[3] = In vitro metabolism in liver microsomes; format: in vitro ADME; conditions: dog liver microsomes
TEC = TEC (Homo sapiens, UniProt P42680); assay: Kinase profiling; format: biochemical
CYP2C9 = CYP2C9 (Homo sapiens, UniProt P11712); assay: In vitro CYP inhibition in human liver microsomes; format: in vitro ADME
CYP2C8 = CYP2C8 (Homo sapiens, UniProt P10632); assay: In vitro CYP inhibition in human liver microsomes; format: in vitro ADME
Raji cells = assay: Cell cytotoxicity assay; format: cell-based; conditions: Homo sapiens, read-out: cell killing potency (IC50) Raji
mutant BTK (C481S) [4] = biological target: mutant BTK (C481S) (Homo sapiens, UniProt Q06187, C481S); assay: BTK enzyme activity assay; format: biochemical
IL‐6 secretion = assay: Cytokine ELISA, IL‐6 secretion in TMD8 cells; conditions: read-out: IC50 IL‐6 secretion, TMD‐8 cells, 16 hours
TMD8 cells [5] = assay: Cell cytotoxicity assay; format: cell-based; conditions: Homo sapiens, TMD8, 96 h, read-out: IC50 cell proliferation TMD8
pH dependent solubility = format: physicochemical
IL‐8 secretion = assay: Cytokine ELISA, IL‐8 secretion in TMD8 cells; format: cell-based; conditions: Homo sapiens, TMD8, 16 h, read-out: IC50 IL‐8 secretion
[6] = Toxicological studies in rats; format: in vivo; conditions: rats up to 300 mg/kg dose (unpublished observation)
HCK = HCK (Homo sapiens, UniProt P08631); assay: Kinase profiling; format: biochemical
[7] = system: collagen‐induced arthritis (CIA); assay: Collagen‐induced arthritis in mice; format: in vivo, DBA1/J male mice; conditions: for reduction of clinical scores compared with vehicle controls: at study termination; for group mean histologic severity score of paws: vehicle 10.4
CYP2D6 = CYP2D6 (Homo sapiens, UniProt P10635); assay: In vitro CYP inhibition in human liver microsomes; format: in vitro ADME
CYP1A2 = CYP1A2 (Homo sapiens, UniProt P05177); assay: In vitro CYP inhibition in human liver microsomes; format: in vitro ADME
Plasma protein binding [8] = format: in vitro ADME; conditions: human
JAK3 = JAK3 (Homo sapiens, UniProt P52333); assay: Kinase profiling; format: biochemical
CYP3A4 = CYP3A4 (Homo sapiens, UniProt P08684); assay: In vitro CYP inhibition in human liver microsomes; format: in vitro ADME
HBL‐1 cells = assay: Cell cytotoxicity assay; format: cell-based; conditions: HBL1, 96 h, read-out: IC50 cell proliferation HBL‐1
[9] = In vitro metabolism in liver microsomes; format: in vitro ADME; conditions: rat liver microsomes
phospho‐PLCγ2 (Y1217) = assay: Phospho‐protein analysis in THP‐1 cells; format: cell-based; conditions: Homo sapiens, THP-1, 1 h, read-out: IC50 PLCγ2‐phosphorylation (Y1217)
CYP2C19 = CYP2C19 (Homo sapiens, UniProt P33261); assay: In vitro CYP inhibition in human liver microsomes; format: in vitro ADME
BTK [10] = biological target: T1, BTK (Homo sapiens, UniProt Q06187); assay: Kinase profiling; format: biochemical
BTK‐WT = BTK‐WT (Homo sapiens, UniProt Q06187); assay: Ki determination with Omnia Tyr peptide kit; format: biochemical
U2932 cells = assay: Cell cytotoxicity assay; format: cell-based; conditions: for IC50: Homo sapiens
phospho‐BTK (Y223) = assay: Phospho‐protein analysis in THP‐1 cells; format: cell-based, human
[11] = In vitro metabolism in liver microsomes; format: in vitro ADME; conditions: monkey liver microsomes
Plasma protein binding [12] = format: in vitro ADME; conditions: rat
[13] = system: TMD‐8 DLBCL xenograft tumor; assay: TMD‐8 xenograft model; conditions: for tumor growth inhibition: 20 consecutive days
TNF‐α secretion = assay: Cytokine ELISA, TNF‐α secretion in THP‐1 cells; format: cell-based; conditions: Homo sapiens, THP-1, read-out: IC50 TNF‐α secretion
BTK [14] = biological target: T1, BTK; assay: Receptor residence time after washout in THP‐1 cells; format: binding; conditions: 500 nmol/L for 1 hour, 24 hours, densitometric scanning
[15] = In vivo pharmacokinetics in rats; design: species or system male Wistar rats; conditions: rat
[16] = In vivo pharmacokinetics in mice; conditions: male, BALB/c, mouse, plasma
[17] = In vitro metabolism in liver microsomes; format: in vitro ADME; conditions: mouse liver microsomes
[18] = In vitro metabolism in liver microsomes; format: in vitro ADME; conditions: human liver microsomes
[19] = Caco‐2 permeability/efflux ratio; format: in vitro ADME; conditions: human, Caco-2
Caco‐2 cell monolayers = assay: Caco‐2 permeability/efflux ratio; format: in vitro ADME; conditions: Caco2 monolayer
BTK [20] = biological target: T1, BTK; assay: Fluorescence competition binding assay
U2932 cell line = conditions: cited from earlier work
arthritis = conditions: cited from earlier work
IL‐6 = conditions: read-out: IC50 for IL‐6 inhibition; in‐vitro assays; cited from earlier work
[21] = male, Wistar, plasma, iv, 1 mg/kg
[22] = male, Wistar, plasma, po, 3 mg/kg

T1 sequence (Q06187 whole entry): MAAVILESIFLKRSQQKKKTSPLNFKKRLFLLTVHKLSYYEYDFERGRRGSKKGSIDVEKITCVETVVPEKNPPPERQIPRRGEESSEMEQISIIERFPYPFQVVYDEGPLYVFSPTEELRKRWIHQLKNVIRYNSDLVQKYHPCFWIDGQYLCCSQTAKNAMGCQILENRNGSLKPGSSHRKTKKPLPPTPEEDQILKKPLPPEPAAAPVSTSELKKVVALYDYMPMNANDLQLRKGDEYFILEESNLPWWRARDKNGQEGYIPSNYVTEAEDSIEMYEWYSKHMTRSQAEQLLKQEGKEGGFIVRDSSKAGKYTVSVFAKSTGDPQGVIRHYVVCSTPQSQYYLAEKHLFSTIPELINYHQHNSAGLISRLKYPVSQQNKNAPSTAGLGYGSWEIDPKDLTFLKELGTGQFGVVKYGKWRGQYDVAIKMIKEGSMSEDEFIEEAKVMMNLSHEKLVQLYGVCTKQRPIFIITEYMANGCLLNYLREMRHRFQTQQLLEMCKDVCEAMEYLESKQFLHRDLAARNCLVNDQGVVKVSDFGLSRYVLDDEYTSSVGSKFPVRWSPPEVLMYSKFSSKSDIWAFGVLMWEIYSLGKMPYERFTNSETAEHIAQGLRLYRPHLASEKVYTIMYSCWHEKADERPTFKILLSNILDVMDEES
Chain of CYP2C8 (P10632 whole entry): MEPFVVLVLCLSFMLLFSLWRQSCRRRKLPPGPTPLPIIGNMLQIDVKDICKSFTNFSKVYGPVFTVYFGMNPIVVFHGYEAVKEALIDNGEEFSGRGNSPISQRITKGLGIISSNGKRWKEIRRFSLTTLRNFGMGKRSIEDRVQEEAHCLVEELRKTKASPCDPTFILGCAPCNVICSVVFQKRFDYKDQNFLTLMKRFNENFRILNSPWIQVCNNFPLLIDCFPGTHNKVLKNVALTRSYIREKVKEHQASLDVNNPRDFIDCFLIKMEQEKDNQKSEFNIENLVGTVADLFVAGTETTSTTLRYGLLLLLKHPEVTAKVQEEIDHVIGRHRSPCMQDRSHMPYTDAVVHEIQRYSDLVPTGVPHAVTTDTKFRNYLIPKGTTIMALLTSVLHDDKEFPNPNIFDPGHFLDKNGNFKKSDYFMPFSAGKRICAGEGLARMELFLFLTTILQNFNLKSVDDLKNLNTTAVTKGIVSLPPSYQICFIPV
Chain of CYP2C9 (P11712 whole entry): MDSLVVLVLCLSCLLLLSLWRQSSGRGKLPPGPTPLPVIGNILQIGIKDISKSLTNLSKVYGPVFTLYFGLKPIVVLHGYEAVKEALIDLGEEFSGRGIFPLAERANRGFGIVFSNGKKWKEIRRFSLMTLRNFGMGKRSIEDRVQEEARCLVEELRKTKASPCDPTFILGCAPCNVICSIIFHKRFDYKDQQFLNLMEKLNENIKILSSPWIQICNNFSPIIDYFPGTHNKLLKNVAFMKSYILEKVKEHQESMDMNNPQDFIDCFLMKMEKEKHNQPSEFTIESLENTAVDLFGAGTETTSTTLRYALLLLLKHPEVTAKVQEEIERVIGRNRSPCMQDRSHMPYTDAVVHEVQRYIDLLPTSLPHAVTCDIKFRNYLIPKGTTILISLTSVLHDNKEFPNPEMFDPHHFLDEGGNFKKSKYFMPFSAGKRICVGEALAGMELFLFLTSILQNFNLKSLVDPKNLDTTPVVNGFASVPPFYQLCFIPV
Chain of TEC (P42680 whole entry): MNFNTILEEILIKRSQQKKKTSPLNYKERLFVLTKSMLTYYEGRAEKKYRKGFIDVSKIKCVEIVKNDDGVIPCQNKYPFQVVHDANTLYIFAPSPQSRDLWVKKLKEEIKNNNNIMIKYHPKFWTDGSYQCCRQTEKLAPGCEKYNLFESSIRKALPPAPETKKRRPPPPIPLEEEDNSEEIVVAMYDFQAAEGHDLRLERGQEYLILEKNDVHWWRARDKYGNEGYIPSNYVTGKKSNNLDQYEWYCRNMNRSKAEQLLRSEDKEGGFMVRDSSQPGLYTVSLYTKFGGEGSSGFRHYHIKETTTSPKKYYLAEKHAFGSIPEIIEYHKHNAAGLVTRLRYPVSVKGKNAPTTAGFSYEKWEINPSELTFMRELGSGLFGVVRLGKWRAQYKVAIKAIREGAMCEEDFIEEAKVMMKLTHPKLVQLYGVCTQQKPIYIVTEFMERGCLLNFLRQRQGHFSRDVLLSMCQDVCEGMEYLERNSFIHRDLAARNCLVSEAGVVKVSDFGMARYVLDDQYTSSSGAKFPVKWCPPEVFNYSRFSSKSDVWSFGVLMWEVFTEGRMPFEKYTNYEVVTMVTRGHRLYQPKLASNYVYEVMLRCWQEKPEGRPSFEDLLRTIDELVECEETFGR
Chain of CYP1A2 (P05177 whole entry): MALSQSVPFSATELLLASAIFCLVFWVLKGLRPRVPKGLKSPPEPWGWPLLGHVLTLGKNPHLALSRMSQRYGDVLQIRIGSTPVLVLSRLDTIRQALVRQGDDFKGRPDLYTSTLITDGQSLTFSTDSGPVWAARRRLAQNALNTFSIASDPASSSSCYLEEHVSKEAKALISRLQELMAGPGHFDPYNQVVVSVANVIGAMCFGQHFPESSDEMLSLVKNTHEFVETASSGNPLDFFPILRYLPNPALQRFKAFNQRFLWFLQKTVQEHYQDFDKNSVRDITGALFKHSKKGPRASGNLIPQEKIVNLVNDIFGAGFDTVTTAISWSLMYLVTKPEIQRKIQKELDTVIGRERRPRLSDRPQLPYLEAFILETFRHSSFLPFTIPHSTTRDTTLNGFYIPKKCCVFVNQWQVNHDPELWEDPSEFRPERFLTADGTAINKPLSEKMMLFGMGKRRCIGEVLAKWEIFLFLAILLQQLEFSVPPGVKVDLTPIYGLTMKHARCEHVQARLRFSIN
Chain of JAK3 (P52333 whole entry): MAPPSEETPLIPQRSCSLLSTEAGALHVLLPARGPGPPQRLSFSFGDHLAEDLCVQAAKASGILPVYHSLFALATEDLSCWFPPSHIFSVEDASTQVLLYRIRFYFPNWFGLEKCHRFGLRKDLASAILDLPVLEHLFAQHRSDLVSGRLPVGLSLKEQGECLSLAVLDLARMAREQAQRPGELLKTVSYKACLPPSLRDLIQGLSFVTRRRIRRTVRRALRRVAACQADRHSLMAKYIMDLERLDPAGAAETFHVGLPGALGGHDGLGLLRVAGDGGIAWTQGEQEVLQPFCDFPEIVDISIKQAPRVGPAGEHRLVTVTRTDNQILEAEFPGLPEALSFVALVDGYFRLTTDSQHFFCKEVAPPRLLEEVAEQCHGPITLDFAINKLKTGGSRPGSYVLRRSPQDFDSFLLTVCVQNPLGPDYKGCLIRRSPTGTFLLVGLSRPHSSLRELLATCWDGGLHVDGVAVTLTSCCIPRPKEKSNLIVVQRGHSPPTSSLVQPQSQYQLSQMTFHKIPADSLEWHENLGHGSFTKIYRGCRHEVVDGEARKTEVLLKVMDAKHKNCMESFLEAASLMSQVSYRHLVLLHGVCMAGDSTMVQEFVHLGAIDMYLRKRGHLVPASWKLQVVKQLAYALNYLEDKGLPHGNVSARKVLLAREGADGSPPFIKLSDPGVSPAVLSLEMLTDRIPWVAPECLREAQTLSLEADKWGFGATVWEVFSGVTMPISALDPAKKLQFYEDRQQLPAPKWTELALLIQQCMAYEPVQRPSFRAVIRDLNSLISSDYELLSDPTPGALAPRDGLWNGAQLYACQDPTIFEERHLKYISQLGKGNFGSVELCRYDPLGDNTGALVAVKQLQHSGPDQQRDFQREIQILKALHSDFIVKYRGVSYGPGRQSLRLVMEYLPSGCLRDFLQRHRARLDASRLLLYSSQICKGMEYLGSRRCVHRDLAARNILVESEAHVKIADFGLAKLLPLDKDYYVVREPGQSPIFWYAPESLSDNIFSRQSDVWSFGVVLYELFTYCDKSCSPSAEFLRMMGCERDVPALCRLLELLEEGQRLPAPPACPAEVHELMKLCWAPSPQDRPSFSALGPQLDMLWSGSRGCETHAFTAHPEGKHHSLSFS
Chain of HCK (P08631 whole entry): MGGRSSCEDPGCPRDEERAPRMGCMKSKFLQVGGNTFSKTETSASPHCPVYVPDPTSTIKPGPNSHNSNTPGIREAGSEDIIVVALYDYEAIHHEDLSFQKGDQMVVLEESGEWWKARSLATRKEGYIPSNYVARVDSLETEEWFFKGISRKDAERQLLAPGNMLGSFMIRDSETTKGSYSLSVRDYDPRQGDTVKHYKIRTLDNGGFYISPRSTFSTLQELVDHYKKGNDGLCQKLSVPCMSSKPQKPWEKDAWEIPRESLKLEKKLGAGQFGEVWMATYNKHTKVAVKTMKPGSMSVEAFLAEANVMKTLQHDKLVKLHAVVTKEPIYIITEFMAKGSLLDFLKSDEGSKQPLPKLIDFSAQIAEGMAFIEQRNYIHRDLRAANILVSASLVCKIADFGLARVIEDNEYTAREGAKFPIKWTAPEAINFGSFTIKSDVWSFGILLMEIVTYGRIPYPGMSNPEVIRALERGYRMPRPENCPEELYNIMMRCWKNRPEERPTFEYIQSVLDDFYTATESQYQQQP
Chain of BTK‐WT (Q06187 whole entry): as the sequence (Q06187 whole entry) above
Chain of CYP3A4 (P08684 whole entry): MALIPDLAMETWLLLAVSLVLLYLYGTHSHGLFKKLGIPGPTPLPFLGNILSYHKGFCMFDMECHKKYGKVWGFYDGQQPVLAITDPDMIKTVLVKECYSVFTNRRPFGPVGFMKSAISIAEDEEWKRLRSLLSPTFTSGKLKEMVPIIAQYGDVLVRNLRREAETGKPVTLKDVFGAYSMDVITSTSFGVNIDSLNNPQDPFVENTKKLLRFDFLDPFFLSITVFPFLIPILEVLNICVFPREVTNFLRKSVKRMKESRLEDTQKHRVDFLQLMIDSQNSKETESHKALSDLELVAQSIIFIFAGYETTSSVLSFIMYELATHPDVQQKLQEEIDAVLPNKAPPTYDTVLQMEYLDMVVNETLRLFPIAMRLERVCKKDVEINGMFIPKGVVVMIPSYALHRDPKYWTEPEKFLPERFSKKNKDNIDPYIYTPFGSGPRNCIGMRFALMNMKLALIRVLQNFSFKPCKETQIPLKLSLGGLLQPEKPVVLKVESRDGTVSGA
Chain of mutant BTK (C481S) (Homo sapiens, UniProt Q06187, C481S) (Q06187 whole entry C481S): as the sequence (Q06187 whole entry) above, with C481S counted along it

CC#CC(=O)N1CC[C@@H](n2c(=O)n(-c3ccc(Oc4ccccc4)cc3)c3c(N)ncnc32)C1 [ONO/GS‐4050]
activity for the mutant BTK (mutant BTK (C481S) [1]): appreciable activity

Cc1nc(Nc2ncc(C(=O)Nc3c(C)cccc3Cl)s2)cc(N2CCN(CCO)CC2)n1 [dasatinib]
cytotoxic effect after drug wash‐off (TMD8 cells [2]; 100 nmol/L): failed to exert its effect when washed off; also recorded: completely lost its cytotoxic potential

C=CC(=O)N1CC2CC(n3nc(-c4ccc(C(=O)Nc5ccccn5)cc4)c4c(N)ncnc43)CC2C1 (centres unmarked) [ZYBT1, 4‐(1‐(2‐acryloyloctahydrocyclopenta[c]pyrrol‐5‐yl)‐4‐amino‐1H‐pyrazolo[3,4‐d]pyrimidin‐3‐yl)‐N‐(pyridin‐2‐yl)benzamide]
inhibition of paw volume (SCW induced arthritis; 75 mg/kg dose): complete inhibition of paw volume | serum levels of IL‐6 (SCW induced arthritis; 0.2, 1, 5, 25, 75 mg/kg): reduced with the treatment in a dose‐dependent manner | body weight (SCW induced arthritis; 0.2, 1, 5, 25, 75 mg/kg, SCW control animals lost weight): restored the body weight in a dose dependent manner | mClint [3]: 0.67 mL/min/gm liver | % metabolized ([3]; 1 µmol/L, 30 minutes, NADPH): ≤ 18% | IC50 (TEC): 38 nM | IC50 (CYP2C9): 5 to 15 µM and 14.7 µM | IC50 (CYP2C8): 5 to 15 µM and 5.5 µM | IC50 (Raji cells): 15 µM | IC50 (mutant BTK (C481S) [4]): 14 nM | IC50 (IL‐6 secretion): 0.4 nM | IC50 (TMD8 cells [5]): 1 nM | solubility (pH dependent solubility; buffer, pH 4.5, aqueous buffer): < 2 µM | solubility (pH dependent solubility; buffer, pH 6.8, aqueous buffer): < 2 µM | solubility (pH dependent solubility; pH 1.2, simulated gastric fluid): 500 µM (≈ 247 µg/mL) | solubility (pH dependent solubility; purified water, water): < 2 µM | IC50 (IL‐8 secretion): 0.2 nM | hematological and biochemical profile, clinical signs and body weight [6]: did not show any change in hematological and biochemical profile, clinical signs and body weight | IC50 (HCK): > 10 µM | reduction of clinical scores compared with vehicle controls ([7]; 0.125 mg/kg once daily oral): 22% | group mean histologic severity score of paws ([7]; 0.125 mg/kg once daily): 5 | reduction of clinical scores compared with vehicle controls ([7]; 0.25 mg/kg once daily oral): 61% | group mean histologic severity score of paws ([7]; 0.25 mg/kg once daily): 3.75 | reduction of clinical scores compared with vehicle controls ([7]; 0.5 mg/kg once daily oral): 93% | group mean histologic severity score of paws ([7]; 0.5 mg/kg once daily): 1 | efficacy in arthritis model compared with ibrutinib ([7]; 0.6 mg/kg ZYBT1 versus 3 mg/kg Ibrutinib): comparable efficacy as 3 mg/kg Ibrutinib | reduction of clinical scores compared with vehicle controls ([7]; 1 mg/kg once daily oral): 97% | group mean histologic severity score of paws ([7]; 1 mg/kg once daily): 0.2 | body weight change ([7]; 0.125, 0.25, 0.5 & 1 mg/kg, OD, end of the study (Figure S5)): did not observe any body weight change | lowest, significantly efficacious dose ([7]; once daily): 0.25 mg/kg | time to improvement in clinical signs of disease after initiation of dosing ([7]; once daily oral dosing): 2 days | IC50 (CYP2D6): > 30 µM | IC50 (CYP1A2): > 30 µM | fraction unbound (Plasma protein binding [8]): 0.016 | IC50 (JAK3): > 10 µM | IC50 (CYP3A4): > 30 µM | IC50 (HBL‐1 cells): 12 nM | mClint [9]: 2.62 mL/min/gm liver | % metabolized ([9]; 1 µmol/L, 30 minutes, NADPH): 55% | IC50 (phospho‐PLCγ2 (Y1217)): 114 nM | IC50 (CYP2C19): > 30 µM | IC50 (BTK [10]): 27 nM | Ki (BTK‐WT): 14 nM | IC50 (U2932 cells; U2932, 96 h, read-out: IC50 cell proliferation U2932): 961 nM | IC50 (U2932 cells; U2932, read-out: IC50 U2932): ~1000 nM | fold resistance of U2932 versus TMD‐8 and HBL‐1 (U2932 cells; within ABC‐DLBCL subgroup): ~ 1000 fold | IC50 (phospho‐BTK (Y223); Homo sapiens, THP-1, 1 h, read-out: IC50 BTK‐phosphorylation (Y223)): 2 nM | phosphorylation of BTK after washout (phospho‐BTK (Y223); THP‐1 cells, 500 nmol/L for 1 hour, washout, 24 hours): completely abolished | concentration that completely abrogates phosphorylation of tyrosine 223 (phospho‐BTK (Y223); THP‐1 cells, one hour): ≥ 30 nmol/L | mCLlint [11]: 3.49 mL/min/gm liver | % metabolized ([11]; 1 µmol/L, 30 minutes, NADPH): 66% | fraction unbound (Plasma protein binding [12]): 0.088 | tumor growth inhibition ([13]; 1.5 mg/kg BID oral): 10% | tumor growth inhibition ([13]; 3 mg/kg BID oral): 50% | anti‐tumor efficacy compared with ibrutinib ([13]; 12.5 mg/kg, BID, intra peritoneal, 14 consecutive days (Figure S2)): comparable; also recorded: slightly better potency compared to Ibrutinib | tumor growth inhibition ([13]; 15 mg/kg BID oral): 88% | anti‐tumor efficacy compared with acalabrutinib ([13]; 15 mg/kg, BID, p.o., 14 consecutive days (Figure S3)): much better efficacy than acalabrutinib | effect on body weight ([13]; 1.5, 3 & 15 mg/kg, p.o, BID, 20 days (Figure S4)): does not have any effect on the body weight | time for which cell killing is maintained after drug wash‐off (TMD8 cells [2]; 25 nmol/L): at least 48 hours | IC50 (TNF‐α secretion): 1 nM | ZYBT1 still bound with BTK after washout (BTK [14]): more than 95% | Vd [15, 21]: 0.88 ± 0.12 L/kg | clearance [15, 21]: 36 ± 7.8 mL/min/kg | half-life [15, 21]: 36 ± 6 min | AUC [15, 22]: 908 ± 170 ng·h/mL | bioavailability [15, 22]: 75% | half-life [15, 22]: 132 ± 78 min | Cmax ([15]; male, Wistar, plasma, po, 3 mg/kg, peak plasma concentration (Cmax), rats, oral (3 mg/mg), mean ± SD, n = 4): 650 ± 222 ng/mL | exposure to free drug at efficacy dose ([15]; considering 91% PPB): 360 nmol/L | clearance ([16]; iv, 1 mg/kg): 39.5 mL/min/kg | half-life ([16]; iv, 1 mg/kg): 24.6 min | AUC ([16]; po, 3 mg/kg): 590 ng·h/mL | Cmax ([16]; po, 3 mg/kg): 703 ng/mL | Tmax ([16]; po, 3 mg/kg): 15 min | half-life ([16]; po, 3 mg/kg): 45.6 min | mClint [17]: 0.46 mL/min/gm liver | % metabolized ([17]; 1 µmol/L, 30 minutes, NADPH): up to 13% | mClint [18]: 1.28 mL/min/gm liver | % metabolized ([18]; 1 µmol/L, 30 minutes, NADPH): ≤ 32% | Papp at 2 µmol/L [19]: 3.3 ×10⁻⁶ cm/s | efflux transporter substrate (Caco‐2 cell monolayers): substrate of efflux transporters | IC50 (BTK [20]): 1 nM

C=CC(=O)N1CCC[C@@H](n2nc(-c3ccc(Oc4ccccc4)cc3)c3c(N)ncnc32)C1 [ibrutinib]
IC50 (mutant BTK (C481S) [1]; read-out: IC50 mutant BTK, C481S): 1000 nM | sensitivity of U2932 cell line to cytotoxicity (U2932 cell line): resistant | ED50 anti‐arthritic activity (arthritis): 2.6 mg/kg/day | IC50 (IL‐6): 3.9 nM

CC#CC(=O)N1CCC[C@H]1c1nc(-c2ccc(C(=O)Nc3ccccn3)cc2)c2c(N)nccn12 [ACP‐196]
activity for the mutant BTK (mutant BTK (C481S) [1]): appreciable activity

Reference: article PMC7424564 (Pharmacology Research & Perspectives, 2020)
